Results on 4 molecules are retold here after ChEMBL document CHEMBL1201862, “PubChem BioAssay data set” (2004).

Test systems include OVCAR-8; COLO 205; SW-620; CAKI-1; UO-31; SK-OV-3; NCI-H460; SF-295; NCI-H226; UACC-257; PC-3; SK-MEL-28; RPMI-8226; IGROV-1; T47D; SN12C; LOX IMVI; SNB-75; NCI-H522; HL-60.
Assay in all cases: DTP human tumour cell line panel, 48 h

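All cell lines were grown in 96-well plates and treated with compound for 48 hours. GI50: concentration for 50% inhibition of growth.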 Activity calls are given as the source filed them. No stated cut-off is given here; in the data, active = GI50 up to about 1.1 µM and inactive = higher. Bounds are passed on as bounds.

The GI50 is the concentration at which growth is held to half of that of the control. For `COc1cccc(C23CCCC(C2)NCC3Br)c1OC` (centres undefined), the GI50 with OVCAR-8 is 11.2 µM (inactive); in the test on COLO 205, 11.9 µM (inactive); with SW-620, 35.6 µM (inactive); with CAKI-1, 41.6 µM (inactive); with UO-31 it was 47.4 µM (inactive); with SK-OV-3, > 100 µM (inactive). Besides, the GI50 is 17.9 µM (inactive) in the test on NCI-H460; 38 µM (inactive) in the test on SF-295; 0.154 µM (active) in the test on NCI-H226; 8.39 µM (inactive) with UACC-257; 30.5 µM (inactive) in the test with PC-3; 48 µM (inactive) in the test with SK-MEL-28. Further, the GI50 with RPMI-8226 is 19.2 µM (inactive); with IGROV-1 it was 75.7 µM (inactive); with T47D, 26.3 µM (inactive); in the test on SN12C it was 31 µM (inactive); in the test with LOX IMVI, 37.5 µM (inactive); in the test with SNB-75, 28.1 µM (inactive). The GI50 in the test with NCI-H522 was 10.2 µM (inactive).

For the molecule `O=C(c1ccc(Cl)c(Cl)c1)N(C(=S)OC12CC3CC(CC(C3)C1)C2)c1ccccc1`, the GI50 in the test on OVCAR-8 was 41.5 µM (inactive); in the test with COLO 205 it was 15.9 µM (inactive); with HL-60 it was 15.8 µM (inactive); with SW-620, 35.2 µM (inactive); with CAKI-1, 29.9 µM (inactive); with UO-31, 21.1 µM (inactive). Moreover, the GI50 was 36.6 µM (inactive) in the test on SK-OV-3; 37.8 µM (inactive) in the test on NCI-H460; 36.1 µM (inactive) with SF-295; 31.2 µM (inactive) with NCI-H226; 41.2 µM (inactive) in the test on UACC-257; 39.9 µM (inactive) in the test on PC-3. In addition, the GI50 in the test with SK-MEL-28 was 44.6 µM (inactive); in the test on T47D, 54.6 µM (inactive); with SN12C, 26.9 µM (inactive); in the test on SNB-75 it was 93.1 µM (inactive); in the test with NCI-H522, 13.2 µM (inactive).

In the case of `COCC12CCC(OC)C34C5CC6(O)C(OC)C=C(C5C6OC(=O)c5ccccc5)C(C(OC)C13)C4N(C)C2` (centres undefined), the GI50 in the test with OVCAR-8, in the test on COLO 205, in the test on HL-60, in the test with SW-620, with CAKI-1 and with UO-31 was > 100 µM (inactive) throughout. Further, the GI50 in the test with SK-OV-3, in the test on NCI-H460, with SF-295, in the test on UACC-257, in the test on PC-3 and in the test with SK-MEL-28 was > 100 µM (inactive) in each case. For the same molecule, the GI50 in the test with RPMI-8226 was > 100 µM (inactive); in the test with IGROV-1, > 100 µM (inactive); in the test on T47D, > 100 µM (inactive); in the test on SN12C it was > 100 µM (inactive); in the test on LOX IMVI it was > 100 µM (inactive); in the test with SNB-75, 32.1 µM (inactive). In the test on NCI-H522, the GI50 was > 100 µM (inactive).

For `CC1CCc2sc3nc4n(c(=O)c3c2C1)CC(C)S4` (centres undefined), the GI50 was 32.2 µM (inactive) in the test on OVCAR-8; 18 µM (inactive) in the test on COLO 205; 43.9 µM (inactive) with SW-620; 36.9 µM (inactive) in the test on CAKI-1; 2.77 µM (inactive) in the test on UO-31; 29.7 µM (inactive) in the test on SK-OV-3. The GI50 was 22.5 µM (inactive) in the test on NCI-H460; 14.3 µM (inactive) with SF-295; 21.8 µM (inactive) in the test with NCI-H226; 20.2 µM (inactive) with UACC-257; 22.5 µM (inactive) in the test on PC-3; 25.9 µM (inactive) with SK-MEL-28. Also, the GI50 with RPMI-8226 is 30.8 µM (inactive); in the test on IGROV-1 it was 34.2 µM (inactive); in the test on T47D, 22.4 µM (inactive); in the test with SN12C, 21.5 µM (inactive); in the test on LOX IMVI, 20.9 µM (inactive); in the test with SNB-75, 21.5 µM (inactive). Also, in the test on NCI-H522, the GI50 was 30.9 µM (inactive).
